For test [1], the target named is T1, cdk2/cyclin E (Homo sapiens, UniProt P24941).
T1 construct: made in house; host or cells: insect cells (baculovirus co-infection)
In words: Cyclin-Dependent Kinase 2 Assay (cdk2/cyclin E, GST-Rb substrate). Type of test: biochemical. Particulars: recombinant cdk2/cyclin E, 10 μM ATP, 30 min at 30° C., several values in a cell = separate determinations, read-out: CDK-2 Inhibition IC50. Here is the method:
Substrate: GST-Rb as described above for cdk4/cyclin D1
Assay conditions for cdk2/cyclin E were identical to those for cdk4/cyclin D1 including the substrate. The concentration of recombinant cdk2/cyclin E in the assay was 0.1 μg per 100 μl assay. Incubation was for 30 min at 30° C.

For test [2], the target named is T2, cdk4/cyclin D1 (Homo sapiens, UniProt P11802).
T2 construct: made in house; host or cells: Sf9 insect cells (Bac-to-Bac baculovirus, pFastBac)
T2 sequence (P11802 whole entry): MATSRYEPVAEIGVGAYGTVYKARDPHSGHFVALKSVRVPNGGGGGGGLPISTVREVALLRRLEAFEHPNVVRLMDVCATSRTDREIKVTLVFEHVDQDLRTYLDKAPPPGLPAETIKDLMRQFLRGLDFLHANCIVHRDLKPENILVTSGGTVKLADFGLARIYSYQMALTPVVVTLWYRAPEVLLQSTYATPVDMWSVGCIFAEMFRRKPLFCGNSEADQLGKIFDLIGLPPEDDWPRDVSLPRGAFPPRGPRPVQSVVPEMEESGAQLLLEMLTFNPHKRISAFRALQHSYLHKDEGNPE
T2 sequence (P24385 whole entry partner): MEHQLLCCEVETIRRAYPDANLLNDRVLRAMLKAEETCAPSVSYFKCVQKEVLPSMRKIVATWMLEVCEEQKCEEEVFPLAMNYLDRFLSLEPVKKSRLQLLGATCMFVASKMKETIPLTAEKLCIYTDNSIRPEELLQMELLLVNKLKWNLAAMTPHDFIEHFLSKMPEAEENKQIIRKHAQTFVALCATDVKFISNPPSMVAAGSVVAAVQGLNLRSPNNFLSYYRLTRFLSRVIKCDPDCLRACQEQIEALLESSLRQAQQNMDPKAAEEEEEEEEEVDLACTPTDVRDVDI
In words: Cyclin-dependent Kinase 4 Assay (cdk4/cyclin D1, GST-Rb substrate). To be noted: cdk4/cyclin D1 insect cell lysate, 10 μM ATP, 30 min at 37° C., several values = separate determinations, read-out: CDK4 Inhibition IC50. The class given is biochemical. In a few lines: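 Insect-cell lysate of coexpressed cdk4/cyclin D1 (0.1 μg) acts on GST-Rb (0.5 μg) bound to glutathione-Sepharose, in 50 mM HEPES pH 7.5, 10 mM MgCl2, 1 mM EGTA. Reaction runs 30 min at 37 °C, then is stopped by filtration and TNEN washes. Rb phosphorylation read by scintillation counting; IC50 derived.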

Test [3] deals with MDA-MB-231. Nature of the test: In vitro tumor cell proliferation, MDA-MB-231. The class given is cell-based, human. Particulars: sulforhodamine B or CyQUANT assay, many values given with an undefined *, read-out: In vitro Tumor Cell Proliferation (IC50, μM) Breast MDA-MB-231. In a few lines:
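Cells plated overnight at 37 °C, then exposed to drug for 3 days, refed with fresh drug and incubated 4 more days. Read-out by sulforhodamine B staining after TCA fixation; alternatively, CyQUANT after 3-day drug exposure and freezing at −80 °C.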

Test [4] concerns MDA-MB-435. In words: In vitro tumor cell proliferation, MDA-MB-435. Particulars: values given with an undefined *, read-out: In vitro Tumor Cell Proliferation (IC50, μM) Breast MDA-MB-435. The class given is cell-based. The method in brief: (§1)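 Growth was quantified by sulforhodamine B staining of TCA-fixed cells after 3 days of drug plus 4 more days with fresh drug, or by CyQUANT after 3 days of drug and freezing at −80° C. Counted viable cells were plated and incubated overnight at 37° C before drug.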

For test [5], the system named is HT-29. In words: In vitro tumor cell proliferation, HT-29. The class given is cell-based, human. Particulars: many values given with an undefined *, read-out: In vitro Tumor Cell Proliferation (IC50, μM) Colon HT-29. The method in brief:
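HT-29 cells seeded overnight at 37° C, then exposed to drug for 3 days, refed with fresh drug-containing medium for 4 more days. Proliferation read by sulforhodamine B staining after TCA fixation; alternatively by CyQUANT after freezing plates at −80° C following 3 days' drug exposure.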

The test system of test [6] is Colo-205. In words: In vitro tumor cell proliferation, Colo-205. Type of test: cell-based. To be noted: values given with an undefined *, read-out: In vitro Tumor Cell Proliferation (IC50, μM) Colon Colo-205. The method in brief:
as §1

Test [7] deals with A549. Nature of the test: In vitro tumor cell proliferation, A549. Type of test: cell-based, human. To be noted: many values given with an undefined *, read-out: In vitro Tumor Cell Proliferation (IC50, μM) Lung A549. In a few lines:
as §1

Test [8] has as its system DMS-114. In words: In vitro tumor cell proliferation, DMS-114. Type of test: cell-based, human. To be noted: many values given with an undefined *, read-out: In vitro Tumor Cell Proliferation (IC50, μM) Lung DMS-114. The method in brief:
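Human small cell lung carcinoma DMS-114 cells plated overnight, then drug-treated for 3 days, medium and drug renewed, and incubated 4 more days. Growth read by sulforhodamine B staining after TCA fixation; alternatively by CyQUANT after 3 days' drug exposure and freezing at −80 °C.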

Test [9] has as its system PC-3. Nature of the test: In vitro tumor cell proliferation, PC-3. Type of test: cell-based, human. Particulars: many values given with an undefined *, read-out: In vitro Tumor Cell Proliferation (IC50, μM) Prostate PC-3. In a few lines: as §1
The test system of test [10] is DU145. In words: In vitro tumor cell proliferation, DU145. The class given is cell-based, human. Particulars: many values given with an undefined *, read-out: In vitro Tumor Cell Proliferation (IC50, μM) Prostate DU145. The method in brief:
as §1

Where [11] appears, read: Homo sapiens, MDA-MB-231, MDA-MB-231.
Setting [12] is: Homo sapiens, COLO 205, Colo-205.
The mark [13] stands for this setting: Homo sapiens, MDA-MB-435, MDA-MB-435.

Several values for one entry are separate records, joined by “and”; a condition that tells them apart may be missing. Equal entries are not always repeated. Structures can show the parent of a compound that is named as a salt. Where two headings read alike, the source gives them in different places.

For the molecule `CCN(CC)CCNc1nc(N[C@H]2CC[C@H](N)CC2)nc2c1ncn2C1CCCC1` [Example 6, 2-[Trans-(4-aminocyclohexyl)amino]-6-[2-(diethylamino)ethylamino]-9-cyclopentylpurine trihydrochloride], the IC50 is 690 nM in test [1]; 300 nM and 700 nM in test [2]; 6.2 µM in test [3] (setting [11]); 6.4 µM in [3] (MDA-MB-231, trihydrochloride); 11 µM in test [4] (MDA-MB-435, trihydrochloride); 7.7 µM in [5] (HT-29, trihydrochloride). In addition, the IC50 was 4.7 µM in test [6] (Colo-205, trihydrochloride); 5.4 µM in [6] (setting [12]); 7.2 µM in test [7] (Homo sapiens, A549, A549); 9.6 µM in test [8] (DMS-114, trihydrochloride); 6.3 µM in [8] (Homo sapiens, DMS-114, DMS-114); 6.4 µM in [9] (Homo sapiens, PC-3, PC-3). Moreover, the IC50 amounted to 8.2 µM in test [9] (PC-3, trihydrochloride); 7.9 µM in test [10] (DU145, trihydrochloride); 7.8 µM in [10] (Homo sapiens, DU-145, DU145).

For `N[C@H]1CC[C@H](Nc2nc(NCc3cccc4ccccc34)c3ncn(C4CCCC4)c3n2)CC1` [Example 7, 2-[Trans-(4-aminocyclohexyl)amino]-6-[(1-napthyl)methylamino]-9-cyclopentylpurine dihydrochloride], the IC50 in test [1] stood at 160 nM; in [2] it was 1400 nM; in [3] (setting [11]) it was 4.4 µM; in [3] (MDA-MB-231, dihydrochloride), 4.9 µM; in [4] (setting [13]) it was 11 µM; in test [4] (MDA-MB-435, dihydrochloride), 10 µM. For the same molecule, the IC50 in test [5] (HT-29, dihydrochloride) worked out at 4.8 µM; in test [5] (Homo sapiens, HT-29, HT-29), 4.6 µM; in test [6] (Colo-205, dihydrochloride), 3.5 µM; in test [6] (setting [12]), 3.4 µM; in test [7] (Homo sapiens, A549, A549), 3.4 µM; in test [8] (DMS-114, dihydrochloride) it was 3.3 µM. Also, the IC50 in test [8] (Homo sapiens, DMS-114, DMS-114) came out at 2.8 µM; in test [9] (Homo sapiens, PC-3, PC-3) it was 4.2 µM; in [9] (PC-3, dihydrochloride) it was 4.8 µM; in test [10] (DU145, dihydrochloride), 5.2 µM; in test [10] (Homo sapiens, DU-145, DU145), 5.5 µM.

Turning to `COc1ccc2[nH]cc(CCNc3nc(N[C@H]4CC[C@H](N)CC4)nc4c3ncn4C3CCCC3)c2c1` [Example 9, 2-[Trans-(4-aminocyclohexyl)amino]-6-[(3-(5-methoxyindolyl))-2-ethylamino]-9-cyclopentylpurine dihydrochloride], the IC50 in test [1] was 165 nM; in [2] it was 3900 nM and 2000 nM; in [3] (setting [11]) it was 0.7 µM; in test [3] (MDA-MB-231, dihydrochloride), 1.1 µM; in test [4] (setting [13]) it was above 10 µM; in test [5] (HT-29, dihydrochloride) it was 0.96 µM. Further, the IC50 in test [5] (Homo sapiens, HT-29, HT-29) came to 0.87 µM; in test [6] (Colo-205, dihydrochloride), 0.94 µM; in test [6] (setting [12]), 0.76 µM; in test [7] (A549, dihydrochloride), 2 µM; in test [7] (Homo sapiens, A549, A549) it was 1.2 µM; in [8] (DMS-114, dihydrochloride), 1.4 µM. Further, the IC50 is 1 µM in test [8] (Homo sapiens, DMS-114, DMS-114); 0.41 µM in [9] (Homo sapiens, PC-3, PC-3); 0.28 µM in test [9] (PC-3, dihydrochloride); 4 µM in test [10] (DU145, dihydrochloride); 3.5 µM in test [10] (Homo sapiens, DU-145, DU145).

On to `N[C@H]1CC[C@H](Nc2nc(NNc3ccccc3F)c3ncn(C4CCCC4)c3n2)CC1` [Example 11, 2-[Trans-(4-aminocyclohexyl)amino]-6-[2-fluorophenylhydrazino]-9-cyclopentylpurine dihydrochloride], for which the IC50 is 100 nM in test [1]; 8900 nM and 5800 nM in test [2]; 5 µM in test [3] (setting [11]); 6.7 µM in [3] (MDA-MB-231, dihydrochloride); 10 µM in test [4] (MDA-MB-435, dihydrochloride); 7.8 µM in [5] (HT-29, dihydrochloride). Moreover, the IC50 in test [5] (Homo sapiens, HT-29, HT-29) came to 6.5 µM; in test [6] (Colo-205, dihydrochloride), 5.2 µM; in test [6] (setting [12]), 6.5 µM; in [7] (A549, dihydrochloride), 3.4 µM; in [7] (Homo sapiens, A549, A549), 4.5 µM; in [8] (DMS-114, dihydrochloride) it was 4.9 µM. For the same molecule, the IC50 was determined as 6.8 µM in test [8] (Homo sapiens, DMS-114, DMS-114); 3.6 µM in test [9] (Homo sapiens, PC-3, PC-3); 4.7 µM in test [10] (DU145, dihydrochloride); 4.6 µM in test [10] (Homo sapiens, DU-145, DU145).

The values are drawn from patent US6479487B1, “6, 9-disubstituted 2-[trans-(4-aminocyclohexyl)amino] purines” (Aventis Pharmaceuticals Inc., priority 1998, dated 2002).
